Source: patent US7608611B2, “Hsp90 inhibitors, methods of making and uses therefor” (The Regents of the University of Colorado, priority 2005, dated 2009)
Where two headings read alike, the source gives them in different places.

What was measured:
[1] = clinical trials, background statement; cited from earlier work
[2] = test system: MDA468/NQ16 cell sonicates; conditions: NADH or NADPH
Procedure: The human breast cancer cell line MDA468 and the NQO1 stably transfected cell line MDA468/NQ16 (Clin. Cancer Res. 2004; 10:3147-55) were grown in RPMI-1640 containing 10% (v/v) fetal bovine serum and 1% (v/v) penicillin, streptomycin and glutamine. […] Protein concentrations were determined by the method of Lowry. […] The parental MDA468 cell lines is NQO1 null (<10 nmoles DCPIP/min/mg) due to homozygous expression of the NQO1*2 polymorphism. The stable transfection of the MDA468 cell line with human NQO1 generated the MDA468/NQ16 cell line, which has high NQO1 activity (>1,800 nmoles DCPIP/min/mg).

Hsp90 = experiment: Immunoblot of Hsp90 inhibition markers (Hsp70, Raf-1, pMEK, pERK) in MDA468/NQ16 versus MDA468 cells; format: cell-based, human; conditions: MDA468/NQ16 compared to MDA468 cells
Procedure: Results were confirmed in duplicate experiments. […] Results were confirmed in duplicate experiments.
To measure Hsp90 inhibition in these cells we analyzed Hsp70 induction and Raf-1 degradation as markers of Hsp90 inhibition (FIG. 5). […] Following drug treatment cells were washed in PBS then lysed by the addition of RIPA buffer (50 mM Tris-HCl, pH 7.4, 0.5% (v/v) NP40) containing 1 mini-protease tablet (protease inhibitor cocktail, Roche Indianapolis Ind.) and phosphatase inhibitors (30 mM NaF, 40 mM β-glycerol phosphate, 20 mM sodium pyrophosphate, 1 mM orthovanadate, 1 mM EGTA). Lysates were probe sonicated (2s) on ice then centrifuged to remove cellular debris. Protein concentrations were determined on supernatant. […] Membranes were blocked in 10 mM Tris-HCl, pH 8.0, 150 mM NaCl, 0.2% Tween-20 and 5% non-fat milk for a minimum of 1 hr at room temperature. Anti-Hsp70, anti-Raf-1, anti-MEK and anti-ERK antibodies were added for 1 hr at room temperature. Anti-phospho MEK and ERK antibodies were added overnight at 4° C. All primary antibodies were diluted 1:1,000 except actin (1:5,000). Horseradish peroxidase-labeled secondary antibodies (Jackson ImmunoResearch Labs, West Grove Pa.) were diluted 1:5000 and added for 30 min. Proteins were visualized using enhanced chemilumenscence detection.

MDA468 cells [3] = experiment: Metabolism of 17-AAG in intact MDA468 cells, HPLC; format: cell-based, human; conditions: 5 μM 17-AAG, 4 hr
MDA468 cell sonicates = experiment: Reduction of 17-AAG by MDA468 cell sonicates, HPLC; format: in vitro ADME, human
MDA468 cells [4] = conditions: read-out: IC50 growth inhibition; parental MDA468 cells, 4 hr exposure then 72 hr drug-free, MTT
Procedure: (§2) Cells were seeded at 2×10^3 cells per well (96 well plate) in complete medium overnight.

yeast Hsp90 = yeast Hsp90 (Saccharomyces cerevisiae, UniProt P02829); format: biochemical; conditions: 17-AAG, 3 hr; for inhibition of yeast Hsp90 ATPase activity in the presence of NQO1 (17-AAGH2 formed): NADH and rhNQO1
yeast Hsp90, sequence (P02829 whole entry): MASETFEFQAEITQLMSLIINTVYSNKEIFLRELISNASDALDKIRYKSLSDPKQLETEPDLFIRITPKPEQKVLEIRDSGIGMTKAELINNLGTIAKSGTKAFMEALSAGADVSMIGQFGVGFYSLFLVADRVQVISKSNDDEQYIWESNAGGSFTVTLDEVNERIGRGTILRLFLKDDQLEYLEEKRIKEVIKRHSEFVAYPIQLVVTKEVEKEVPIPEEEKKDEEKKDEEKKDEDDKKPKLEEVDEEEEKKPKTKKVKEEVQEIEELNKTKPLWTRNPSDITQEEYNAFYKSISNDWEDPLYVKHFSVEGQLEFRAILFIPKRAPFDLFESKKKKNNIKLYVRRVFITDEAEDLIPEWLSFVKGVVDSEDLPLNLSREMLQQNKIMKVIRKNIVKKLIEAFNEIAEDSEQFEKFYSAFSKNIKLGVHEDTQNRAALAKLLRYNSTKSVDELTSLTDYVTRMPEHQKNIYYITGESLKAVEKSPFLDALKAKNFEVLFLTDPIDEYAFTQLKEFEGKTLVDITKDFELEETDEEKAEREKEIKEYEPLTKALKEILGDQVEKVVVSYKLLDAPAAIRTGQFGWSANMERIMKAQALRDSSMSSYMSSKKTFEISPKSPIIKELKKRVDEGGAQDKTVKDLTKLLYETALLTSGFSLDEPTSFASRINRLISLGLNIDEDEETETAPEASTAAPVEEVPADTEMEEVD
Procedure: Reactions with yeast Hsp90 (top panel) were analyzed after 3 hr, while reactions with human Hsp90 (bottom panel) were analyzed after 12 hr. Phosphate concentrations were measured using the malachite green assay.
Reactions (25 μl) were started by the addition of 1 mM ATP and allowed to proceed at 37° C. for the indicated times. Reactions were then diluted with 225 μl of 100 mM Tris-HCl, pH 7.4, containing 20 mM KCl and 6 mM MgCl2 mixed thoroughly, and 80 μl was transferred to each well (96 well plate) followed by 20 μl of malachite green reagent. After 10 min 83 mM trisodium citrate was added to stabilize the color and plates were read at 650 nm.

MDA468/NQ16 cells [5] = conditions: MTT
Procedure: as §2

MDA468/NQ16 cells [6] = test system: MDA468/NQ16 cells
NQO1 [7] = target: T1, NQO1 (Homo sapiens, UniProt P15559); experiment: Reduction of 17-AAG by rhNQO1 and NADH, HPLC analysis; format: in vitro ADME
T1 sequence (P15559 whole entry): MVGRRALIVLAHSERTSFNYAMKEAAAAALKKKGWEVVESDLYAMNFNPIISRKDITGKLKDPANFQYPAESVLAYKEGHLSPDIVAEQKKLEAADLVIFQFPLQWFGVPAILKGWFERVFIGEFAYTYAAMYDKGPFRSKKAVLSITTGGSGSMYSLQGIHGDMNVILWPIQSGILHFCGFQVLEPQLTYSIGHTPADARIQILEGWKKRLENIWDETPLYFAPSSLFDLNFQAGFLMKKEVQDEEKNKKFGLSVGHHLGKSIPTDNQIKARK
Procedure: HPLC conditions: Buffer A, 50 mM ammonium acetate, pH 4 containing 10 μM D(−) penicillamine; buffer B, acetonitrile (100%). Both buffers were continuously bubbled with N2. Gradient, 20% B to 85% B over 20 min, then 85% for 4 min (flow rate of 1 ml/min). The sample injection volume was 50 μl. Liquid Chromatography-Mass Spectrometry was performed using positive ion electrospray ionization (ESI) and the mass spectra were obtained with a PE Sciex API-3000 triple quadrupole mass spectrometer (Foster City, Calif.) with a turbo ionspray source interfaced to a PE Sciex 200 HPLC system. Samples were chromatographed on a Luna C18 reverse-phase column (5 μm, 50×2 mm (Phenomenex) using a gradient elution consisting of a 2 min initial hold at 20% B followed by an increase to 80% B over 20 min at a flow rate of 0.2 ml/min and a sample injection volume of 20 μl. Buffer A, 10 mM ammonium acetate containing 0.1% (v/v) acetic acid, pH 4.4: buffer B, 10 mM ammonium acetate in acetonitrile containing 0.1% (v/v) acetic acid. The mass spectrometer settings were: turbo ionspray temperature of 250° C., spray needle voltage at 4500 V, declustering potential (DP) at 35 V and focus plate (FP) at 125 V. Mass spectra were continuously recorded from 150 to 1000 amu every 3 s during the chromatographic analysis.
Inhibition of rhNQO1 by ES936 was >98%. […]

NQO1 [8] = target: T1, NQO1; experiment: Inhibition of rhNQO1 by ES936; format: biochemical
Source text: (§1) Inhibition of rhNQO1 by ES936 was >98%.

NQO1 [9] = target: T1, NQO1; experiment: Inhibition of NQO1 activity by ES936 in MDA468/NQ16 cells; format: cell-based; parameters: expressed in transfected cells; host or cells: MDA468/NQ16 (human breast cancer MDA468 stably transfected with human NQO1)
Source text: as §1

[10] = Stability (autoxidation) of 17-AAGH2 in solution by HPLC; format: physicochemical
Source text: Results are mean, standard deviation, n=3.
During analysis HPLC buffers were continuously gassed with N2 and a copper chelator was included. […] In these studies the autoxidation of 17-AAGH2 was followed over time in an aerobic reaction.

[11] = MDA468/NQ16 cells, 5 μM 17-AAG, 4 hr

For CO[C@H]1/C=C\C=C(/C)C(=O)NC2=CC(=O)C(NCCN(C)C)=C(C[C@@H](C)C[C@H](OC)[C@H](O)[C@@H](C)/C=C(\C)[C@@H]1OC(N)=O)C2=O [17-DMAG, 17-demethoxy-17-[[2-(dimethylamino)ethyl]amino]-geldanamycin], the “hepatotoxicity / liver toxicity” value [1] is listed as “do not induce liver toxicity”.
With C=CCNC1=C2C[C@@H](C)C[C@H](OC)[C@H](O)[C@@H](C)/C=C(\C)[C@H](OC(N)=O)[C@@H](OC)/C=C\C=C(/C)C(=O)NC(=CC1=O)C2=O [17-AAG, 17-demethoxy-17-(2-propenylamino)-geldanamycin] the “generation of 17-AAGH2 by cell sonicates” value [2] was “readily generated 17-AAGH2”, the Hsp70 induction (Hsp90; 17-AAG 0.5-1 μM, 8 hr) was “greater Hsp70 induction” and the Raf-1 degradation (Hsp90; 17-AAG 0.5-1 μM, 8 hr) was “increased Raf-1 degradation”. The “MEK and ERK phosphorylation” value (Hsp90; serum starved 24 hr, 17-AAG 8 hr) was “decreased levels of both MEK and ERK phosphorylation”, the “Cell viability (trypan blue exclusion assay)” value (MDA468 cells [3]) was > 90% and the “formation of 17-AAGH2 in intact cells” value (MDA468 cells [3]) was “No 17-AAGH2 could be detected”. The “generation of 17-AAGH2 by cell sonicates” value (MDA468 cell sonicates) was “No 17-AAGH2 could be detected”, the IC50 (MDA468 cells [4]) was 10.1 ± 1.07 µM and the “hepatotoxicity / liver toxicity” value [1] was “do not induce liver toxicity”. For the same compound, the “inhibition of yeast Hsp90 ATPase activity in the presence of NQO1 (17-AAGH2 formed)” value (yeast Hsp90) was “substantial decrease in ATPase activity”, the “inhibition of yeast Hsp90 ATPase activity in the absence of NQO1” value (yeast Hsp90; NADH) was “No inhibition” and the IC50 (MDA468/NQ16 cells [5]; read-out: IC50 growth inhibition after pretreatment with ES936, pretreatment with 100 nM ES936 for 30 min, 4 hr exposure then 72 hr) was 7.67 ± 1.36 µM. The IC50 (MDA468/NQ16 cells [5]; read-out: IC50 growth inhibition, MDA468/NQ16 cells, 4 hr exposure then 72 hr drug-free) was 0.86 ± 0.16 µM, the “Cell viability (trypan blue exclusion assay)” value (MDA468/NQ16 cells [6]; [11]) was > 90% and the “formation of 17-AAGH2 in intact cells” value (MDA468/NQ16 cells [6]; [11]) was 17-AAGH2 could be generated. For the same compound, the “accumulation of total drug (quinone plus hydroquinone) in cells” value (MDA468/NQ16 cells [6]; MDA468/NQ16 compared to ES936-treated or parental MDA468 cells) was “accumulated more total drug” and the “17-AAG detected in the form of the hydroquinone after reduction by NQO1” value (NQO1 [7]) was 90%.
In the case of COC1=CC(=O)c2c(c(COc3ccc([N+](=O)[O-])cc3)c(C)n2C)C1=O [ES936, 5-methoxy-1,2-dimethyl-3-[(4-nitrophenoxy)methyl]indole-4,7-dione], the “Inhibition of rhNQO1” value (NQO1 [8]) is reported as > 98%, the inhibition at 0.1 µM (NQO1 [9]; single dose 100 nM ES936, after 4 hr, MDA468/NQ16 cells) is reported as > 96% and the “toxicity of ES936 to cells” value (NQO1 [9]; single dose of 100 nM) is reported as “nontoxic”.
For C=CCNc1c(O)cc2c(O)c1CC(C)CC(OC)C(O)C(C)C=C(C)C(OC(N)=O)C(OC)C=CC=C(C)C(=O)N2 (stereo not shown) [17-AAGH2, 17-Demethoxy-18,21-dihydroxy-17-(2-propenylamino)-geldanamycin], the “inhibition of yeast Hsp90 ATPase activity in the presence of NQO1 (17-AAGH2 formed)” value (yeast Hsp90) was “the active Hsp90 inhibitor”, the “autoxidation of the hydroquinone back to the quinone over time” value ([10]; aerobic, 50 mM potassium phosphate buffer pH 7.4, 27° C.) was “slow rate of autoxidation back to 17-AAG over a period of hours” and the “effect of copper on 17-AAGH2 oxidation” value ([10]; inclusion of copper (CuSO4)) was “could facilitate 17-AAGH2 oxidation”.
In the case of COC1=C2C[C@@H](C)C[C@H](OC)[C@H](O)[C@@H](C)/C=C(\C)[C@H](OC(N)=O)[C@@H](OC)/C=C\C=C(/C)C(=O)NC(=CC1=O)C2=O [GDM, geldanamycin], the “hepatotoxicity / liver toxicity” value [1] is listed as “unacceptable hepatotoxicity”.
